Measured values from ChEMBL document CHEMBL5042554, “Discovery of Pyridone-Substituted Triazolopyrimidine Dual A2A/A1 AR Antagonists for the Treatment of Ischemic Stroke” (ACS Med Chem Lett, 2022).

Key:
Adenosine receptor A1 [1] = target: T1, Adenosine receptor A1 (Homo sapiens, UniProt P30542); test: Displacement of [3H] DPCPX from human recombinant A1 adenosine receptor expressed in CHO cells incubated for 60 mins by radioligand binding competition assay; assay type: cell-based
T1 sequence (P30542 whole entry): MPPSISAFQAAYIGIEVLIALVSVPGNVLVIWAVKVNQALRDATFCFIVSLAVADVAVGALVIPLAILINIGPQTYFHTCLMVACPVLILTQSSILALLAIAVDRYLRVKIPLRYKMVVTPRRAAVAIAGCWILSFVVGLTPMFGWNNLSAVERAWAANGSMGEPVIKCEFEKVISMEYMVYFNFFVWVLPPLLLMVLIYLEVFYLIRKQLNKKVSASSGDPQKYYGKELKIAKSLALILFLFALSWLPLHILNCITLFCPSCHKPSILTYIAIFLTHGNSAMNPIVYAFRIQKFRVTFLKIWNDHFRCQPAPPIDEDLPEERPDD

Adenosine receptor A2a [2] = target: T2, Adenosine receptor A2a (Homo sapiens, UniProt P29274); test: Displacement of [3H] ZM241385 from human recombinant A2A adenosine receptor expressed in HeLa cells incubated for 30 mins by radioligand binding competition assay; assay type: cell-based
Adenosine receptor A2b = target: T3, Adenosine receptor A2b (Homo sapiens, UniProt P29275); test: Displacement of [3H] DPCPX from human recombinant A2B adenosine receptor expressed in HEK293 cells incubated for 30 mins by radioligand binding competition assay; assay type: cell-based
T3 sequence (P29275 whole entry): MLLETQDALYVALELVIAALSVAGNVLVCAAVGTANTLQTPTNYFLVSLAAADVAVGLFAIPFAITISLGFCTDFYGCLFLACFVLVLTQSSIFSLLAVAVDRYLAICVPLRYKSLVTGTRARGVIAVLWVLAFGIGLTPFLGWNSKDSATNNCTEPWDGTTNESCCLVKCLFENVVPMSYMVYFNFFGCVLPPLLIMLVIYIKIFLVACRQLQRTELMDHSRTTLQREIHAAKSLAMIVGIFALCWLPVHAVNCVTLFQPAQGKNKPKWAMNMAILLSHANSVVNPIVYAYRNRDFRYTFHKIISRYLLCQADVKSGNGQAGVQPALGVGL

Adenosine receptor A3 = target: T4, Adenosine receptor A3 (Homo sapiens, UniProt P0DMS8); test: Displacement of [3H] NECA from human recombinant A3 receptor expressed in HeLa cells incubated for 180 mins by radioligand binding competition assay; assay type: cell-based
T4 sequence (P0DMS8 whole entry): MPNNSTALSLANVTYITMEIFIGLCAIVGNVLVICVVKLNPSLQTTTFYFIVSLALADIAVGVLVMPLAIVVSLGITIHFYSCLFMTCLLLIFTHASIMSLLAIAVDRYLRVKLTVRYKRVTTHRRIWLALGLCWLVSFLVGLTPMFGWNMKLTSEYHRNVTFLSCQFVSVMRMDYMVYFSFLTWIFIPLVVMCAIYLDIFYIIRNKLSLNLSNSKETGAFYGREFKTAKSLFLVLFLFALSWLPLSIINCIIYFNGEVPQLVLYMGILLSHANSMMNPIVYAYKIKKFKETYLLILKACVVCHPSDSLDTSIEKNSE

Adenosine receptor A1 [3] = target: T1, Adenosine receptor A1; test: Antagonist activity at human recombinant adenosine A1 receptor transfected in HEK293 cells co-transfected with Galpha15/16 assessed as intracellular calcium change incubated for 10 mins by microplate reader method; assay type: functional, cell-based
Adenosine receptor A2a [4] = target: T2, Adenosine receptor A2a; test: Antagonist activity at human recombinant adenosine A2A receptor transfected in HEK293 cells co-transfected with Galpha15/16 assessed as intracellular calcium change incubated for 10 mins by microplate reader method; assay type: functional, cell-based

T2 sequence (P29274 whole entry): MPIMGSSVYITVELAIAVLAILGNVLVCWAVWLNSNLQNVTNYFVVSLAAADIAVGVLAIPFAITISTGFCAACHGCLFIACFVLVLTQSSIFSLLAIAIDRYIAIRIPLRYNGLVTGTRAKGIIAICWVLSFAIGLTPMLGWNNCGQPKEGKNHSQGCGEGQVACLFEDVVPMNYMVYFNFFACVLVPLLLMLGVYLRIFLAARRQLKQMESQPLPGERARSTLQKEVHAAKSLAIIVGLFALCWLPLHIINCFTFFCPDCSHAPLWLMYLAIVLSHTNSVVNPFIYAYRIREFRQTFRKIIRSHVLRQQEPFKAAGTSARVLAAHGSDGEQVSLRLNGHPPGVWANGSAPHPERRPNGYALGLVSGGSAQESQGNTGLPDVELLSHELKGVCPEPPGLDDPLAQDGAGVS

Row | SMILES | Ki (Adenosine receptor A1 [1]) [nM] | Ki (Adenosine receptor A2a [2]) [nM] | Ki (Adenosine receptor A2b) [nM] | Ki (Adenosine receptor A3) [nM] | IC50 (Adenosine receptor A1 [3]) [nM] | IC50 (Adenosine receptor A2a [4]) [nM]
1 | Cn1ccc(-c2nc3c(-c4ccc(=O)n(C)c4)cnc(N)n3n2)n1 | 722 | 3430 | > 10000 | > 10000 |  | 
2 | Cc1csc(-c2nc3c(-c4ccc(=O)n(C)c4)cnc(N)n3n2)n1 | 926 | 1030 | > 10000 | > 10000 |  | 
3 | Cc1cnc(-c2nc3c(-c4ccc(=O)n(C)c4)cnc(N)n3n2)s1 | 21.9 | 43.9 | 9920 | 2930 |  | 
4 | Cn1cc(-c2cnc(N)nc2-c2ccco2)ccc1=O | 88.6 | 26.9 | 58.9 | > 10000 |  | 
5 | Cn1cc(-c2cnc(N)n3nc(-c4ccccn4)nc23)ccc1=O | 37.6 | 62.4 | > 10000 | > 10000 |  | 
6 | Cn1cc(-c2cnc(N)n3nc(-c4ccco4)nc23)ccc1=O | 24.2 | 5.58 | 491 |  | 25.9 | 5.72
7 | Cn1cc(-c2cnc(N)n3nc(-c4nccs4)nc23)ccc1=O | 78 | 84.6 | 1590 | > 10000 |  | 
8 | Cc1cccc(-c2nc3c(-c4ccc(=O)n(C)c4)cnc(N)n3n2)n1 | 1720 | 3770 | > 10000 | > 10000 |  | 
9 | Cn1nccc1-c1nc2c(-c3ccc(=O)n(C)c3)cnc(N)n2n1 | 2970 | 797 | > 10000 | > 10000 |  | 
10 | Cc1ccc(-c2nc3c(-c4ccc(=O)n(C)c4)cnc(N)n3n2)o1 | 88.4 | 448 | > 10000 | 2960 |  | 
